Values of other authors, collected in patent publication US20230037437A1, “FORMULATIONS FOR USE IN THE TREATMENT OF DIFFERENT TYPES OF ADDICTIONS AND DEPENDENCE ON ADDICTIVE SUBSTANCES” (UNIBIOLABS INTERNACIONAL S.A DE C.V, priority 2019, published 2023).

Assays:
[1] = target: dopamine transporter (DAT) (Homo sapiens, UniProt Q01959); settings: relative to cocaine
serotonin transporter = serotonin transporter (Homo sapiens, UniProt P31645)
IKr channel (hERG) = IKr channel (hERG) (Homo sapiens, UniProt Q12809)
Sequence of IKr channel (hERG) (Q12809 whole entry): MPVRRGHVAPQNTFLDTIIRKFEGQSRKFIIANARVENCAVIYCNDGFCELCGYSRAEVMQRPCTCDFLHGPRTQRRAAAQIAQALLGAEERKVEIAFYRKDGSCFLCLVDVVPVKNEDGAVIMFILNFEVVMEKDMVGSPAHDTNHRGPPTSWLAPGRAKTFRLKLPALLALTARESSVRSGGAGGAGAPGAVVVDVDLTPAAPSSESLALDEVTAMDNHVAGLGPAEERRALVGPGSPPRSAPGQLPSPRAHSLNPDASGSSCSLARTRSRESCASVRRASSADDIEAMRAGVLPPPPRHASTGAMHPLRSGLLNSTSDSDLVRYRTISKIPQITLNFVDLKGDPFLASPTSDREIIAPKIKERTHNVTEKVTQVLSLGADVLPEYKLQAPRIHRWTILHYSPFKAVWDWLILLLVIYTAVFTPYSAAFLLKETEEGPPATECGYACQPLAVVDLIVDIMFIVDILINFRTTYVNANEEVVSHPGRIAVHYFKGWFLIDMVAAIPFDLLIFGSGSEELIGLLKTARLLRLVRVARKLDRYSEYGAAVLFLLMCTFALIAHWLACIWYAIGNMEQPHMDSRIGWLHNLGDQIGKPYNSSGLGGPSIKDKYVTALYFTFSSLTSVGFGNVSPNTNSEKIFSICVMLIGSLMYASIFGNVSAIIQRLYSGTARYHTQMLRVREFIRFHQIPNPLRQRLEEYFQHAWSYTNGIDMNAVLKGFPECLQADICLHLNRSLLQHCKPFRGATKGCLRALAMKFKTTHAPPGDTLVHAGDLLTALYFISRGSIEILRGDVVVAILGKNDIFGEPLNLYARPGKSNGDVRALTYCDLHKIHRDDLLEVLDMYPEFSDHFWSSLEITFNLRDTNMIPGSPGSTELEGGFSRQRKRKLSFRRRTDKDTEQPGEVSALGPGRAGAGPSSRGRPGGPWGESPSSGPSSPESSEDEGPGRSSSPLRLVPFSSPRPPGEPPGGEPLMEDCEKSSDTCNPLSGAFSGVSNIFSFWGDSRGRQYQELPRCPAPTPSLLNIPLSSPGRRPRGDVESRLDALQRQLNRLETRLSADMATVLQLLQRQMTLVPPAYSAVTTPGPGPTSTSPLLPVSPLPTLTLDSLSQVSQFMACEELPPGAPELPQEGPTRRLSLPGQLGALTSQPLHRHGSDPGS

cocaine abusers = settings: patients taking magnesium versus placebo

Sequence of serotonin transporter (P31645 whole entry): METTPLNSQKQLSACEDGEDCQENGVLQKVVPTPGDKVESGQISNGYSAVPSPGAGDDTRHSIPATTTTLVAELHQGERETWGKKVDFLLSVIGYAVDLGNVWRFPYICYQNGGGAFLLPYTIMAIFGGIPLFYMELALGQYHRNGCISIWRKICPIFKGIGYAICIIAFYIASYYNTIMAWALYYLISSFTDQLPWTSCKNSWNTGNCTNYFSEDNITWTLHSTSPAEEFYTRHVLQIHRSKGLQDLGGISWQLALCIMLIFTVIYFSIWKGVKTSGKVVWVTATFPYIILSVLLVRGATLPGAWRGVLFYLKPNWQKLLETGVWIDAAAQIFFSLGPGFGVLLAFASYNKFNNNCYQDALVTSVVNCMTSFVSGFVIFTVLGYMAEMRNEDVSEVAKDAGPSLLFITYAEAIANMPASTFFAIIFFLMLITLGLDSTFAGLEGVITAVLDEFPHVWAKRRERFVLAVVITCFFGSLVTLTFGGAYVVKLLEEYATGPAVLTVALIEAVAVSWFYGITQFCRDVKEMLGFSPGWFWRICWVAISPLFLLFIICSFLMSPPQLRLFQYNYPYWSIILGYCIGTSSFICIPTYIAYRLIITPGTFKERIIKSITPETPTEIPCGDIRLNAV
Sequence of dopamine transporter (DAT) (Q01959 whole entry, species assumed): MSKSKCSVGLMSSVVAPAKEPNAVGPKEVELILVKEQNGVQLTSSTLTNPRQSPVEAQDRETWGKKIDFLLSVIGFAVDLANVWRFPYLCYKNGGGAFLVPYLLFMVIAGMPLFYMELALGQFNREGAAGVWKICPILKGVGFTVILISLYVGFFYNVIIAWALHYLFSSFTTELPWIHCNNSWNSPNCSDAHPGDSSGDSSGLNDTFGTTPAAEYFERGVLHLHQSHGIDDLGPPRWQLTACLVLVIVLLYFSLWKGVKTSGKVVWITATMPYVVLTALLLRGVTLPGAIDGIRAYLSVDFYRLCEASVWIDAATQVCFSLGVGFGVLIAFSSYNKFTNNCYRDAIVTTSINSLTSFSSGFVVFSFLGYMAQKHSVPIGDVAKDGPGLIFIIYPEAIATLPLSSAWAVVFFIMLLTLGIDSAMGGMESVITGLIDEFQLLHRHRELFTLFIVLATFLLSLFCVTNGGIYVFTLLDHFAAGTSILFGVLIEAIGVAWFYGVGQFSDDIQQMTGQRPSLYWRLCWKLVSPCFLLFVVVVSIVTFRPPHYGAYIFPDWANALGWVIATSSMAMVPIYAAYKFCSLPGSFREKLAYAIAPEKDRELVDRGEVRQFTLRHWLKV

Row | Structure (SMILES) | binding to the target site on the dopamine transporter (DAT), stronger than cocaine [1] | affinity to the serotonin transporter (serotonin transporter) | IKr channel (hERG) block (IKr channel (hERG)) | cocaine craving scores, lower than in patients taking placebo (cocaine abusers)
1 | Fc1ccc(C(OCCN2CCN(CCCc3ccccc3)CC2)c2ccc(F)cc2)cc1 [GBR 12909, Vanoxerine] | approximately 50 times | nanomolar affinity | potent IKr channel blocker | 
2 | [Mg+2] [magnesium] |  |  |  | 78%
